# System: L. major
# Assay: Leishmania (L.) major infection model
# Type: in vivo, BALB/c mice
# Description: FIG. 4, comprising FIG. 4A through FIG. 4H, depicts results of experiments showing functional inhibition of Dkk-1 protects the host from chronic inflammation caused by L. major. FIG. 4A depicts a schematic diagram for Dkk-1 inhibitor treatment (10 μg/kg/time) in six-week-old female BALB/c mice. FIG. 4B depicts analysis of parasite burden in the infected foot from each mouse at day 42. FIG. 4C depicts the lesion size in the infected foot from each mouse at day 42. FIG. 4D depicts the cell count of macrophages in the infected hindfoot of mice two weeks after vehicle (n=5) or Dkk-1 inhibitor treatment (n=5) counted by flow cytometry and compared with infected (untreated) and uninfected BALB/c mice (n=3). FIG. 4E depicts results of draining lymph node cells from each mouse (n=5/group) that were stimulated with sLMAG (soluble leishmania antigen) 2 weeks after infection. FIG. 4F depicts results of draining lymph node cells from each mouse (n=5/group) were stimulated with sLMAG 6 weeks after infection. FIG. 4G depicts the CD4 cell percentage in draining lymph nodes from each group was determined by flow cytometry. FIG. 4H depicts CD4 T cell numbers in draining lymph nodes from each group was determined by flow cytometry. A representative of two independent experiments is shown. Student's t-test and one-way-ANOVA analysis with Dunnet's post-hoc test were performed. **, p<0.005, *, p<0.05.
# FIG. 17, comprising FIG. 17A and FIG. 17B, depicts results of experiments showing a Dkk-1 monoclonal antibody treatment protects BALB/c mice from chronic inflammation caused by L. major. FIG. 17A depicts the number lymph node cells were in L. major infected BALB/c mice injected with a Dkk-1 monoclonal antibody or isotype control antibody. BALB/c mice were infected with L. major (2 million parasites/animal) on day 0. Dkk-1 mAb or isotype control antibody (100 μg/injection) was injected intraperitoneally into six-week-old female BALB/c mice on day −1, +1, +3, +5, +7, +9, +11, +14 (n=6). On day 14, mice were sacrificed, and their drained lymph node cells were counted. Student's t-test was performed. *,p<0.05. FIG. 17B depicts the lesion size in BALB/c mice injected with a Dkk-1 monoclonal antibody or isotype control antibody. Six-week-old female BALB/c mice were infected with L.major, and DKK-1 mAb was treated intraperitoneally on day −1, +1, +3, +5, +7, +9, +11, +14, +21 and +28. Lesion size for each mouse was measured on day 12, 22, and 32. Student's t-test was performed. *, p<0.05.
# L. major WR309 strain (MHOM/IL/79/LRC-L251) was originally isolated from a human case of cutaneous leishmaniasis in Israel and has been maintained through culture and frequent passages in mice to maintain virulence. BALB/c mice were infected with 2×10^6 late stationary promastigotes isolated from a Percoll gradient. For monitoring 2 week and 6 week experiments, Dkk-1 inhibitor (10 mg/kg) or vehicle (50 μl DMSO) was injected on day −1, +1, +3, +5, +7, +9, +11 and weekly afterwards till harvest. Draining lymph nodes, nondraining lymph nodes, and plasma were collected. For ex vivo analysis, soluble Leishmania major antigen (sLMAg) was employed. Single cell suspension of draining and non-draining lymph node cells was incubated with sLMAg (equivalent to 5×10^6 organisms/ml final) for 96 hr. Supernatants were harvested and analyzed by ELISA assays. For depleting platelets, 80 μg of anti-CD42 mAb (Emfret Analytical) was injected intravenously in 100 μl PBS. Equal amounts of isotype-matched control Ab (eBioscience) was used for control group animals. Tissues from mice were harvested on day 3 post-infection for analysis.
# To determine the ability of an anti-Dkk-1 monoclonal antibody (Dkk-1 mAb) to protect BALB/c mice against chronic inflammation caused by L. major, 6-week old BALB/c mice were infected with L.major (2 million parasites/animal) on day 0. A Dkk-1 mAb or isotype control antibody (100 μg/injection) was injected intraperitoneally on day −1, +1, +3, +5, +7, +9, +11, +14 (n=6). […]
# [1] = BALB/c mice, infected foot, 42 days post-infection
# [2] = days 14 and 42 post-infection, ex vivo stimulation of draining lymph node cells with sLMAG
structure (smiles),measurement,setting,value
"NCC1CCN(c2nccc(-c3ccc4ccccc4c3)n2)CC1 [WAY-262611, (1-(4-(naphthalen-2-yl)pyrimidin-2-yl)piperidin-4-yl)methanamine]",reduction of parasite survival,"BALB/c mice, 10 mg/kg intraperitoneally, 42 days post-infection",11.5 fold
same,lesion size,[1],greatly reduced
same,parasite burden,[1],greatly reduced
same,percentage of CD4 T cells in draining lymph nodes (dLN),FIG. 4G,did not reduce
same,number of CD4 T cells in the dLN,FIG. 4H,reduced
same,IL-4 production,[2],notably reduced
same,IL-10 production,[2],notably reduced
same,Macrophage accumulation following parasite infection,"infected hindfoot, 14 days after infection",diminished
